The record followed here is publication PMC6085350, “Small molecule inhibitors of RAS-effector protein interactions derived using an intracellular antibody fragment” (Nature Communications, 2018).

Entries after “also recorded” stand apart in the source; their conditions may differ. Some results are limits rather than exact numbers.

Experiment [1] concerns the target T1, KRAS^G12V-GppNHp + scFv complex (Homo sapiens, UniProt P01116, G12V).
T1 construct: GST (N); made in house; host or cells: E. coli
Nature of the experiment: waterLOGSY NMR competition with anti-RAS scFv. The experiment is classed as binding. The method, then: The waterLOGSY NMR method[35] was used to measure RAS ligand interaction. WaterLOGSY experiments were conducted at a ^1H frequency of 600 MHz using a Bruker Avance spectrometer equipped with a BBI probe. All experiments were conducted at 298 K, 3 mm diameter NMR tubes with a sample final volume of 200 µl was used in all experiments. Solutions were buffered using an H2O 10 mM PBS, 5 mM MgCl2 buffer corrected to pH 7.4. The sample preparation is exemplified as follows, the compound (10 µl of a […] solution in DMSO-d6) was added to an eppendorf before sequential addition of the H2O PBS buffer (163.6 µl), D2O (20 µl), and protein (6.4 µl, 311.8 µM). The resulting solution was spun to ensure full mixing and transferred to a 3 mm NMR tube before running the experiment. For a competition experiment using Y6-scFv or VH, the preparation was carried out in a similar manner; the compound (10 µl of a 10 mM solution in DMSO-d6) was added to an eppendorf before sequential addition of the H2O PBS buffer (146.4 µl), D2O (20 µl), protein (6.4 µl, 311.8 µM) and Y6-ScFv (17.2 µl, 116.6 µM) with a ratio of 5.5:1:1. The resulting solution was spun and transferred to a 3 mm NMR tube before the run. […]
Supplementary Figure 3: Abd-2 WaterLOGSY NMR with and without anti RAS-scFV Abd-2 was analyzed by waterLOGSY. […]

The next experiment addresses PI3KC2. Nature of the experiment: Kinase panel (KinaseProfiler), first PI3KC2 line. Format: biochemical, human. As to conditions: PI3KC2 (first of two lines), 10μM. The method, then:
(§1) Experiments were performed by Eurofins Pharma Discovery Services. The KinaseProfiler™ assay protocol guide can be downloaded from their website: www.eurofins.com/discoveryservices. The guide contains information on the buffer conditions, substrate and reference inhibitor blank used for each kinase.
(§2) Supplementary Table 3. Assessment of potential interaction of Abd-7 with a human kinase
(§3) Kinase % kinase activity in
(§4) A panel of 14 Kinases (relevant to the RAS pathway) has been screened against Abd-7
(§5) (10μM) and the kinase activity was measured. […] of activity was observe for all
(§6) function of the selected and RAS relevant kinase proteins.

The test system of experiment [2] is ERK1/2 phosphorylation in DLD-1 cells (KRAS^G13D). Nature of the experiment: Biomarker phosphorylation assay, pERK, DLD-1. The experiment is classed as cell-based, human. Particulars: DLD-1, 2-20 μM, 3 h, EGF 10 min. The method, then: (§7) Fig. 5 Abd-7 results on RAS-dependent signalling pathways and cell viability. a, b DLD-1 (a) or H358 (b) cells were serum-starved for 24 h, incubated in mono-layer with Abd-7 in a range from 2, 5, 10 and 20 μM for 3 h and stimulated with EGF 10 min. Proteins were extracted and separated by SDS-PAGE and transferred to membranes for Western analysis with anti-pAKT, anti-pERK, anti-pan AKT and anti-pan ERK. Anti-cyclophilin B antibody was the loading control. Signal was developed using standard ECL. c–e Effects of compounds Abd-2, Abd-4, Abd-5, Abd-6, and Abd-7 on the viability of human cancer cells lines was assessed for a 2-D culture of DLD-1 (mutant KRAS^G13D) cells and HT1080 cells (mutant NRAS^Q61K). The cells were treated with a dose range from 0 μM to 20 μ and incubated for 72 h when cell viability was assessed using CellTitreGlo. […] Each experiment was repeated at least three times (a, b) and four times (c, d). Where error bars are presented, they correspond to mean values ± SD of biological repeats
A total of 450,000 DLD1 or 640,000 H358 cells were seeded per well of a six well plate. Approximately, 20 h later, the medium was removed, the cells washed twice with PBS and DMEM without FBS was added and left for 24 h. […] Cell lysates were sonicated with a Branson Sonifier and the protein concentrations determined by using the Pierce BCA protein assay kit (Thermo-Fisher). […]

Experiment [3] relates to AKT phosphorylation (Ser473) in DLD-1 cells (KRAS^G13D). The experiment can be described thus: Biomarker phosphorylation assay, pAKT, DLD-1. The experiment is classed as cell-based, human. As to conditions: EGF 10 min. The method, then:
as §7
A total of 450,000 DLD1 or 640,000 H358 cells were seeded per well of a six well plate. Approximately, 20 h later, the medium was removed, the cells washed twice with PBS and DMEM without FBS was added and left for 24 h. The medium was removed and 2 ml of DMEM no FBS was added with the appropriate concentration of compound (DMSO, 2, 5, 10 or 20 μM) for 3 h. Cells were stimulated with EGF (50 ng/ml) for 10 min, washed once with PBS and directly lysed in SDS-Tris buffer (1% SDS, 10 mM Tris-HCl pH 7.4) supplemented with protease inhibitors (Sigma) and phosphatase inhibitors (Thermo-Fisher). Cell lysates were sonicated with a Branson Sonifier and the protein concentrations determined by using the Pierce BCA protein assay kit (Thermo-Fisher). Furthermore, 10 μg of protein were resolved on 10 or 12.5% SDS-PAGE and subsequently transferred onto a PVDF membrane (GE). The membrane was blocked (with 10% non-fat milk (Sigma) or 10% BSA (Sigma) in TBS-0.1% Tween20) and incubated overnight with primary antibody at 4 °C. […]

In the next experiment the target is T2, PKBα (Homo sapiens, UniProt P31749).
T2 construct: purchased Eurofins Pharma Discovery Services (KinaseProfiler)
Nature of the experiment: Kinase panel (KinaseProfiler). The experiment is classed as biochemical. As to conditions: 10μM. The protocol: as §1, §2, §3, §4, §5, §6

The target of a further experiment is T3, MAPK2 (Homo sapiens, UniProt P28482).
T3 construct: purchased Eurofins Pharma Discovery Services (KinaseProfiler)
The experiment can be described thus: Kinase panel (KinaseProfiler). As to conditions: MAPK2, 10μM. The experiment is classed as biochemical. The protocol: as §1, §2, §3, §4, §5, §6

As for `O=C(NCC1COc2ccccc2O1)c1ccco1` (centres unmarked) [Abd-2], the “binding to KRAS^G12V-GppNHp in the presence of anti-RAS scFv (waterLOGSY)” value in experiment [1] is given as “no longer binds; also recorded: no binding”.

A word on the inhibition: it is the share of the control response that was lost under treatment. Low values mean little suppression, high ones strong suppression. Regarding `COc1nc(-c2cccc3c2OCCO3)ccc1Nc1ccc(CN(C)C)cc1` [Abd-7], the results for the “% kinase activity in the presence of Abd-7” value on PI3KC2, at PKBα and on MAPK2 were 102%, 91% and 111%, respectively. Besides, the “inhibition of ERK1/2 phosphorylation” value in experiment [2] is listed as “diminution of pERK levels”. Moreover, the “inhibition of AKT phosphorylation” value in experiment [3] (DLD-1, 20 μM, 3 h) is “complete inhibition”. In addition, the “concentration at which inhibition of AKT phosphorylation initiates” value in experiment [3] (DLD-1, starved 24 h, 3 h compound, Western) was determined as 2 µM. The inhibition at 10 µM in experiment [3] (Homo sapiens, DLD-1, 10 μM, 3 h) is greater than 50%.
